Assay results from US10259807B2, “1-(piperazin-1-yl)-2-([1,2,4]triazol-1-yl)-ethanone derivatives” (Idorsia Pharmaceuticals Ltd., priority 2013, dated 2019).

Legend:
human CXCR3A = biological target: T1, human CXCR3A (Homo sapiens, UniProt P49682); test: FLIPR assay (CXCL10-induced calcium signal in CHO-K1 cells); format: cell-based; settings: CHO-K1 cells expressing human CXCR3A coupled to Galpha(16); CXCL10 agonist 20 nM; mean values
T1 construct: expressed in transfected cells; host or cells: CHO-K1
T1 sequence (P49682 1-368): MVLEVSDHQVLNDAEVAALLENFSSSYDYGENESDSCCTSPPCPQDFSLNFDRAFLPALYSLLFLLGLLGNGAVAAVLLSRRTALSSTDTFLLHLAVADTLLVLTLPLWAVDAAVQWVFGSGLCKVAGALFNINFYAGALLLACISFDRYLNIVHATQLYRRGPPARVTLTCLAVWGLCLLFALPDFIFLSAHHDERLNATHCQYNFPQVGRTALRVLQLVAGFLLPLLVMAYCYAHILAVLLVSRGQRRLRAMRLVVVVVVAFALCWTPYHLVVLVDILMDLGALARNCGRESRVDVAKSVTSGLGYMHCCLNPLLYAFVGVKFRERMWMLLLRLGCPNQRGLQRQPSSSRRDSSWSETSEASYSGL
Experimental: A) FLIPR assay: The bioactivity of compounds is tested in a fluorometric imaging plate reader (FLIPR: Molecular Devices) using engineered CHO-K1 cells expressing the human CXCR3A (GenBank: AY242128) coupled to a G protein (Galpha(16)). Cells are plated the day prior to bioassay in F12 medium supplemented with 10% FBS and G418 and hygromycin antibiotics to maintain recombinant selection. […] Cells are washed free of excess dye and 60 microliter of wash buffer is added. Stock solutions of test compounds are made up at a concentration of 10 mM in DMSO, and serially diluted in dilution buffer to concentrations required for inhibition dose response curves. After a 10 minute incubation period at 37° C., 10 microliters of each compound dilution are transferred from a compound plate to the plate containing the recombinant cells in the FLIPR instrument according to the manufacturer's instructions. Following basal readings, 10 microliter CXCL10 agonist at a concentration of 20 nM (from Peprotech) is added, again using the FLIPR instrument. Changes in fluorescence are monitored before and after addition of the test compounds. Emission peak values above base level after CXCL10 addition are exported after base line subtraction. The program XLfit is used to fit the data to a single site dose response curve and to calculate IC50 values. The calculated IC50 values may fluctuate depending on the daily assay performance. Fluctuations of this kind are known to those skilled in the art.

hERG K channel = biological target: T2, hERG K channel (Homo sapiens, UniProt Q12809); test: hERG Q-Patch assay; format: cell-based; settings: CHO cells expressing hERG, K+ tail current 3 min after application, mean of two or three experiments
T2 construct: host or cells: CHO
T2 sequence (Q12809 whole entry): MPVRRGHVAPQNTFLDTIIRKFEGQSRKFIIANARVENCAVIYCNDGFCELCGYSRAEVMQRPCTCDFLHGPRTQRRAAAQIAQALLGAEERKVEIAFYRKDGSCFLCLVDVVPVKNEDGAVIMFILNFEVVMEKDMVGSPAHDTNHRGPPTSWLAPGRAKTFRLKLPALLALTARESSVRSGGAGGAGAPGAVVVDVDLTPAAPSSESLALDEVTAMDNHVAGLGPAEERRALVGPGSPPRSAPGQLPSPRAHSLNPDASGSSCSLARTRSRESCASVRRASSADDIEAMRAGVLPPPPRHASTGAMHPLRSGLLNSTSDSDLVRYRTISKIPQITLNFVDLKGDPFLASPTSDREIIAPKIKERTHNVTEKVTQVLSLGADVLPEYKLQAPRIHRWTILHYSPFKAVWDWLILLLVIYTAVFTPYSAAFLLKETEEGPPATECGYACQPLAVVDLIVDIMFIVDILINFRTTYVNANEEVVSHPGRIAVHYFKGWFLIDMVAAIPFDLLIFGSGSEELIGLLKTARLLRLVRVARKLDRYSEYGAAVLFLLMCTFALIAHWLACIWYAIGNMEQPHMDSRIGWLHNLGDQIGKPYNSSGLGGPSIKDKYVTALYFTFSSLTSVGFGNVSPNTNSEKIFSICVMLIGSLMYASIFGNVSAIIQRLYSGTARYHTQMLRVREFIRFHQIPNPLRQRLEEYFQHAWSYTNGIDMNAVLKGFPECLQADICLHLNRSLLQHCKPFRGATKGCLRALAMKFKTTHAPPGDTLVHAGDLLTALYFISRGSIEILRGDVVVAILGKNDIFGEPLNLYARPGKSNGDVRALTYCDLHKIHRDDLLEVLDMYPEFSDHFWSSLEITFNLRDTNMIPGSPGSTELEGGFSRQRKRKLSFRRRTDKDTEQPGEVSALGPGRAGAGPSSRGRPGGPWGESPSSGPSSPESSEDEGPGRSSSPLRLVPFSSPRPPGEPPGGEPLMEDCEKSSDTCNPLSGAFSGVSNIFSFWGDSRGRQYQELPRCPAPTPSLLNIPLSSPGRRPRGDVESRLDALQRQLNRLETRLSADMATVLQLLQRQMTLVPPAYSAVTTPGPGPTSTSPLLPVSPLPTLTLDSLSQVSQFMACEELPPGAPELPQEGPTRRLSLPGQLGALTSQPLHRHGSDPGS
Experimental: B) hERG Q-Patch assay: Compounds are evaluated for block of the hERG K channel using CHO cells stably expressing the hERG gene (accession number U04270, bSys, Witterswil. Switzerland) and the Patch robotic platform (Sophion, Ballerup, Denmark) in single-cell mode at room temperature. […] When the cells are ˜80% confluent (every 2-3 days), they are either split for further culture or used for electrophysiology. […] Cells are kept in suspension medium at 32-35° C. in the QPatch robot until use, at which time aliquots are transferred to the extracellular solution (in mM: NaCl 150; KCl 4; CaCl2 1.2; MgCl2 1; HEPES 10; pH 7.4 with NaOH) containing 0.3% v/v DMSO and applied to the test plates. K^+ currents are measured with the patch-voltage-clamp technique in the whole-cell configuration with the internal solution (in […]: KCl, 140; NaCl, 10; MgCl2, 1; HEPES, 10; EGTA, 5; pH=7.2 with KOH). […] K^+tail currents are produced from a holding voltage of −80 mV by a 500-ms depolarization to +20 mV followed by a 500-ms repolarization to −40 mV; tail current amplitudes are measured at the end of the repolarization to −40 mV. The pulse pattern is repeated every 10 sec during the experiment, baseline K^+ current is measured after 3 min in extracellular solution, test-solution containing compound is then applied, and K^+ current in presence of compound is measured 3 minutes after application to the cells.

Compound | IC50 (human CXCR3A) | % block (hERG K channel; concentration 300 nM) | % block (hERG K channel; concentration 3000 nM)
Cc1nc(C)n(CC(=O)N2CCN(c3sc(C(F)(F)F)nc3-c3ccc(C#N)cc3)C[C@H]2C)n1 [Example 5, 4-(5-{(R)-4-[2-(3,5-Dimethyl-[1,2,4]triazol-1-yl)-acetyl]-3-methyl-piperazin-1-yl}-2-trifluoromethyl-thiazol-4-yl)-benzonitrile] | 24 nM | – | –
CCOc1ncc(-c2nc(C(F)(F)F)sc2N2CCN(C(=O)Cn3nc(CN(C)C)nc3C)[C@H](C)C2)cn1 [Example 17, 2-(3-Dimethylaminomethyl-5-methyl-[1,2,4]triazol-1-yl)-1-{(R)-4-[4-(2-ethoxy-pyrimidin-5-yl)-2-trifluoromethyl-thiazol-5-yl]-2-methyl-piperazin-1-yl}-ethanone] | 20 nM | 13% | 26%
Cc1ccc(-c2nc(C(F)(F)F)sc2N2CCN(C(=O)Cn3nc(C)nc3C)[C@H](C)C2)cc1 [Example 8, 2-(3,5-Dimethyl-[1,2,4]triazol-1-yl)-1-[(R)-2-methyl-4-(4-p-tolyl-2-trifluoromethyl-thiazol-5-yl)-piperazin-1-yl]-ethanone] | 28 nM | 22% | 61%
Cc1nc(C)n(CC(=O)N2CCN(c3sc(C(F)(F)F)nc3-c3cnc(OCC(F)(F)F)nc3)C[C@H]2C)n1 [Example 28, 2-(3,5-Dimethyl-[1,2,4]triazol-1-yl)-1-((R)-2-methyl-4-{4-[2-(2,2,2-trifluoro-ethoxy)-pyrimidin-5-yl]-2-trifluoromethyl-thiazol-5-yl}-piperazin-1-yl)-ethanone] | 2.8 nM | 0% | 6%
Cc1ncc(-c2nc(C(F)(F)F)sc2N2CCN(C(=O)Cn3nc(C)nc3C)[C@H](C)C2)cn1 [Example 23, 2-(3,5-Dimethyl-[1,2,4]triazol-1-yl)-1-{(R)-2-methyl-4-[4-(2-methyl-pyrimidin-5-yl)-2-trifluoromethyl-thiazol-5-yl]-piperazin-1-yl}-ethanone] | – | −1% | −2%
Cc1nc(C)n(CC(=O)N2CCN(c3sc(C(F)(F)F)nc3-c3ccc(F)cc3)C[C@H]2C)n1 [Example 6, 2-(3,5-Dimethyl-[1,2,4]triazol-1-yl)-1-{(R)-4-[4-(4-fluoro-phenyl)-2-trifluoromethyl-thiazol-5-yl]-2-methyl-piperazin-1-yl}-ethanone] | 64 nM | 11% | 51%
Cc1nc(C)n(CC(=O)N2CCN(c3sc(C(F)(F)F)nc3-c3cnc(OCCN(C)C)nc3)C[C@H]2C)n1 [Example 26, 1-((R)-4-{4-[2-(2-Dimethylamino-ethoxy)-pyrimidin-5-yl]-2-trifluoromethyl-thiazol-5-yl}-2-methyl-piperazin-1-yl)-2-(3,5-dimethyl-[1,2,4]triazol-1-yl)-ethanone] | 41 nM | −1% | −8%
COc1ncc(-c2nc(C(F)(F)F)sc2N2CCN(C(=O)Cn3nc(C)nc3C)[C@H](C)C2)cn1 [Example 32, 2-(3,5-Dimethyl-[1,2,4]triazol-1-yl)-1-{(R)-4-[4-(2-methoxy-pyrimidin-5-yl)-2-trifluoromethyl-thiazol-5-yl]-2-methyl-piperazin-1-yl}-ethanone] | – | −6% | −5%
COc1ccc(-c2nc(C(F)(F)F)sc2N2CCN(C(=O)Cn3nc(C)nc3C)[C@H](C)C2)cn1 [Example 16, 2-(3,5-Dimethyl-[1,2,4]triazol-1-yl)-1-{(R)-4-[4-(6-methoxy-pyridin-3-yl)-2-trifluoromethyl-thiazol-5-yl]-2-methyl-piperazin-1-yl}-ethanone] | – | 4% | 14%
CCc1ncc(-c2nc(C(F)(F)F)sc2N2CCN(C(=O)Cn3nc(C)nc3C)[C@H](C)C2)cn1 [Example 43, 2-(3,5-Dimethyl-[1,2,4]triazol-1-yl)-1-{(R)-4-[4-(2-ethyl-pyrimidin-5-yl)-2-trifluoromethyl-thiazol-5-yl]-2-methyl-piperazin-1-yl}-ethanone] | – | 4% | 8%

Now from value to molecule, other results behind:

IC50 (human CXCR3A) | Compound | % block (hERG K channel; concentration 300 nM) | % block (hERG K channel; concentration 3000 nM)
31 nM | Cc1nc(C)n(CC(=O)N2CCN(c3sc(C(F)(F)F)nc3-c3cnc4c(c3)CCCO4)C[C@H]2C)n1 [Example 39, 1-{(R)-4-[4-(3,4-Dihydro-2H-pyrano[2,3-b]pyridin-6-yl)-2-trifluoromethyl-thiazol-5-yl]-2-methyl-piperazin-1-yl}-2-(3,5-dimethyl-[1,2,4]triazol-1-yl)-ethanone] | 3% | 15%
4.5 nM | CCOc1ncc(-c2nc(C(F)(F)F)sc2N2CCN(C(=O)Cn3nc(C)nc3C)[C@H](C)C2)c(OCC)n1 [Example 29, 1-{(R)-4-[4-(2,4-Diethoxy-pyrimidin-5-yl)-2-trifluoromethyl-thiazol-5-yl]-2-methyl-piperazin-1-yl}-2-(3,5-dimethyl-[1,2,4]triazol-1-yl)-ethanone] | −2% | 0%
5.6 nM | [2H]C([2H])(C(=O)N1CCN(c2sc(C(F)(F)F)nc2-c2cnc(OCC)nc2)C[C@H]1C)n1nc(C)nc1C [Example 41, 2-(3,5-Dimethyl-[1,2,4]triazol-1-yl)-1-{(R)-4-[4-(2-ethoxy-pyrimidin-5-yl)-2-trifluoromethyl-thiazol-5-yl]-2-methyl-piperazin-1-yl}-2,2-dideuterium-ethanone] | – | –
91 nM | Cc1nc(C)n(CC(=O)N2CCN(c3sc(C(F)(F)F)nc3-c3cnc(CCN(C)C)nc3)C[C@H]2C)n1 [Example 42, 1-((R)-4-{4-[2-(2-Dimethylamino-ethyl)-pyrimidin-5-yl]-2-trifluoromethyl-thiazol-5-yl}-2-methyl-piperazin-1-yl)-2-(3,5-dimethyl-[1,2,4]triazol-1-yl)-ethanone] | −3% | 0%
3.5 nM | CCc1nc(C)nn1CC(=O)N1CCN(c2sc(C(F)(F)F)nc2-c2cnc(C(F)(F)F)nc2)C[C@H]1C (single isomer, unassigned) [Example 47] | 5% | 18%
6.8 nM | COCCOc1ncc(-c2nc(C(F)(F)F)sc2N2CCN(C(=O)Cn3nc(C)nc3C)[C@H](C)C2)cn1 [Example 25, 2-(3,5-Dimethyl-[1,2,4]triazol-1-yl)-1-((R)-4-{4-[2-(2-methoxy-ethoxy)-pyrimidin-5-yl]-2-trifluoromethyl-thiazol-5-yl}-2-methyl-piperazin-1-yl)-ethanone] | −1% | 1%
4.7 nM | Cc1nc(C)n(CC(=O)N2CCN(c3sc(C(F)(F)F)nc3-c3ccc4c(c3)CCCO4)C[C@H]2C)n1 [Example 21, 1-[(R)-4-(4-Chroman-6-yl-2-trifluoromethyl-thiazol-5-yl)-2-methyl-piperazin-1-yl]-2-(3,5-dimethyl-[1,2,4]triazol-1-yl)-ethanone] | 1% | 12%
25 nM | COc1ccc(-c2nc(C(F)(F)F)sc2N2CCN(C(=O)Cn3nc(C)nc3C)[C@H](C)C2)cc1C [Example 12, 2-(3,5-Dimethyl-[1,2,4]triazol-1-yl)-1-{(R)-4-[4-(4-methoxy-3-methyl-phenyl)-2-trifluoromethyl-thiazol-5-yl]-2-methyl-piperazin-1-yl}-ethanone] | 6% | 27%
